Data as given in patent publication US20240158446A1, “CYCLIC COMPOUND HAVING SELECTIVE INHIBITORY ACTION ON KRAS OVER HRAS AND NRAS” (CHUGAI SEIYAKU KABUSHIKI KAISHA, priority 2021, published 2024).
Where a SMILES comes first, the peptide text is derived from it. Bridges are numbered along the chain shown (N, C = ends). [ ]: non-standard residue; d: D form. The star is where a group is joined. hPhe(3-Cl-4-CF3) = N[C@@H](CCc1ccc(C(F)(F)F)c(Cl)c1)C(=O)O; NPrPhe(4-CF3) = CCCN[C@@H](Cc1ccc(C(F)(F)F)cc1)C(=O)O; NMeNva(3-Et) = CCC(CC)[C@H](NC)C(=O)O; NMeD = CN[C@@H](CC(=O)O)C(=O)O; NMeL = CN[C@@H](CC(C)C)C(=O)O; NMeNva = CCC[C@H](NC)C(=O)O; Morpholide = C1CN(*)CCO1; NMeA = CN[C@@H](C)C(=O)O; Aze = O=C(O)[C@@H]1CCN1; Ac4c = NC1(C(=O)O)CCC1; Sar = CNCC(=O)O

How the values were obtained:
[1] = target: GDP-bound KRAS wild-type protein (Homo sapiens, UniProt P01116); assay: Binding to KRAS by surface plasmon resonance (SPR), Single Cycle Kinetics; settings: SPR, Single Cycle Kinetics, GDP-bound KRAS wild-type protein; read-out: KRAS KD
Sequence of GDP-bound KRAS wild-type protein (P01116 whole entry): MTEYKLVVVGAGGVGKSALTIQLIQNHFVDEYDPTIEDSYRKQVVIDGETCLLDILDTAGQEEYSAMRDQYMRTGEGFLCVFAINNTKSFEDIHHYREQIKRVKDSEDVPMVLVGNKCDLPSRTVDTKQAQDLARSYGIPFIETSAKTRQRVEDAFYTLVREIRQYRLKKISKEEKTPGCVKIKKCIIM

[2] = target: GDP-bound HRAS wild-type protein (Homo sapiens, UniProt P01112); assay: Binding to HRAS by surface plasmon resonance (SPR), Single Cycle Kinetics; settings: ratio of KD for GDP-bound HRAS wild-type protein to KD for KRAS, SPR
Sequence of GDP-bound HRAS wild-type protein (P01112 whole entry): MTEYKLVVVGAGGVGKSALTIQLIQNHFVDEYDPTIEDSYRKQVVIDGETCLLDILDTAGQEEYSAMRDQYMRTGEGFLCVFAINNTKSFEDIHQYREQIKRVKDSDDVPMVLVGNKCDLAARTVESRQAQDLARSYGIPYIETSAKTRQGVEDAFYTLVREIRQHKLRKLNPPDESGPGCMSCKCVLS

[3] = test system: human lung cancer strain NCI-H441; assay: cells; settings: NCI-H441, 96 h, read-out: NCI-H441 IC50 (nM), NCI-H441 cell proliferation, 4 days, CellTiter-Glo;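 further: cell proliferation inhibition after four days measured by CellTiter-Glo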
[4] = target: GDP-bound NRAS wild-type protein (Homo sapiens, UniProt P01111); assay: Binding to NRAS by surface plasmon resonance (SPR), Single Cycle Kinetics; settings: ratio of KD for GDP-bound NRAS wild-type protein to KD for KRAS, SPR
Sequence of GDP-bound NRAS wild-type protein (P01111 whole entry): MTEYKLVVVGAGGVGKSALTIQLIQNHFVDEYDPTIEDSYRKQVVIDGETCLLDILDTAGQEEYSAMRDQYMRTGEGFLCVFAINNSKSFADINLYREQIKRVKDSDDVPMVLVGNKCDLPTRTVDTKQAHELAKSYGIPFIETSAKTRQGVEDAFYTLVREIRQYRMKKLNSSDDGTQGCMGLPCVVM

| Kd [1] | IC50 [3] | Compound | HRAS/KRAS (KD ratio) [2] | NRAS/KRAS (KD ratio) [4] |
| --- | --- | --- | --- | --- |
| 0.14 nM | 6.6 nM | CCO[C@@H]1C[C@H]2C(=O)NC3(CCC3)C(=O)N(C)[C@@H](C3CCCC3)C(=O)N(C)[C@H](C(=O)N(C)CC)CC(=O)N(C)[C@@H](C(C)C)C(=O)N[C@@H]([C@@H](C)CC)C(=O)N(C)CC(=O)N(C)[C@H]3C/C=C\CCN(C3=O)[C@@H](Cc3ccc(C(F)(F)F)cc3)C(=O)N(C)CC(=O)N[C@@H](CCc3cc(F)c(C(F)(F)F)c(F)c3)C(=O)N2C1 [PP1990] | A (a compound having 10 or more and less than 20 is denoted as A) | A (a compound having 10 or more and less than 20 is denoted as A) |
| 0.16 nM | 6 nM | CCCOC[C@H]1C(=O)N[C@@H]([C@@H](C)CC)C(=O)N(C)CC(=O)N(C)[C@H]2C/C=C\CCN(C2=O)[C@@H](Cc2ccc(C(F)(F)F)cc2)C(=O)N(C)CC(=O)N[C@@H](CCc2cc(F)c(C(F)(F)F)c(F)c2)C(=O)N2C[C@H](OCC)C[C@H]2C(=O)NC2(CC(C)(C)C2)C(=O)N(C)[C@@H](C2CCCC2)C(=O)N(C)[C@H](C(=O)N(C)CCC)CC(=O)N1C [PP1673] | A (a compound having 10 or more and less than 20 is denoted as A) | A (a compound having 10 or more and less than 20 is denoted as A) |
| 0.075 nM | 2.7 nM | CCCN(C)C(=O)[C@@H]1CC(=O)N(C)[C@@H](CC(F)F)C(=O)N[C@@H]([C@@H](C)CC)C(=O)N(C)CC(=O)N(C)[C@H]2C/C=C\CCN(C2=O)[C@@H](Cc2ccc(C(F)(F)F)cc2)C(=O)N(C)CC(=O)N[C@@H](CCc2cc(F)c(C(F)(F)F)c(F)c2)C(=O)N2C[C@H](F)C[C@H]2C(=O)NC2(CC(C)(C)C2)C(=O)N(C)[C@@H](C2CCCC2)C(=O)N1C [PP1687] | A (a compound having 10 or more and less than 20 is denoted as A) | A (a compound having 10 or more and less than 20 is denoted as A) |
| 0.22 nM | 8 nM | CCCN1C(=O)[C@@H]2CCN2C(=O)[C@H](C)N(C)C(=O)[C@H]([C@@H](C)CC)NC(=O)[C@H](CC(C)C)N(C)C(=O)C[C@@H](C(=O)N(C)C)N(C)C(=O)[C@H](C(CC)CC)N(C)C(=O)C2(CCC2)NC(=O)[C@@H]2CCCN2C(=O)[C@H](CCc2ccc(C(F)(F)F)c(Cl)c2)NC(=O)CN(C)C(=O)[C@@H]1Cc1ccc(C(F)(F)F)cc1 [PP1961] ([NMeL]I[NMeA][Aze][NPrPhe(4-CF3)][Sar][hPhe(3-Cl-4-CF3)]P[Ac4c][NMeNva(3-Et)][NMeD]-NMe2; lactam N-11) | C (A compound having a KD ratio of 0.1 or more and less than 3 is denoted as C) | C (A compound having a KD ratio of 0.1 or more and less than 3 is denoted as C) |
| 0.55 nM | 14.7 nM | CCC[C@H]1C(=O)N[C@@H]([C@@H](C)CC)C(=O)N(C)[C@@H](C)C(=O)N2CC[C@H]2C(=O)N(CCC)[C@@H](Cc2ccc(C(F)(F)F)cc2)C(=O)N(C)CC(=O)N[C@@H](CCc2ccc(C(F)(F)F)c(Cl)c2)C(=O)N2CCC[C@H]2C(=O)NC2(CCC2)C(=O)N(C)[C@@H](C(CC)CC)C(=O)N(C)[C@H](C(=O)N2CCOCC2)CC(=O)N1C [PP1959] ([NMeNva]I[NMeA][Aze][NPrPhe(4-CF3)][Sar][hPhe(3-Cl-4-CF3)]P[Ac4c][NMeNva(3-Et)][NMeD]-Morpholide; lactam N-11) | B (a compound having 3 or more and less than 10 is denoted as B) | C (A compound having a KD ratio of 0.1 or more and less than 3 is denoted as C) |
| 0.062 nM | 3.1 nM | CCC[C@H]1C(=O)N[C@@H]([C@@H](C)CC)C(=O)N(C)CC(=O)N(C)[C@H]2C/C=C\CCN(C2=O)[C@@H](Cc2ccc(C(F)(F)F)cc2)C(=O)N(C)CC(=O)N[C@@H](CCc2ccc(C(F)(F)F)c(Cl)c2)C(=O)N2C[C@H](OCC)C[C@H]2C(=O)NC2(CC(C)(C)C2)C(=O)N(C)[C@@H](C2CCCC2)C(=O)N(C)[C@H](C(=O)N(C)C)CC(=O)N1C [PP1748] | B (a compound having 3 or more and less than 10 is denoted as B) | A (a compound having 10 or more and less than 20 is denoted as A) |
| 0.13 nM | 10.7 nM | CC[C@H](C)[C@@H]1NC(=O)[C@H](C(C)C)N(C)C(=O)C[C@@H](C(=O)N(C)C)N(C)C(=O)[C@H](C2CCCC2)N(C)C(=O)C2(CC(C)(C)C2)NC(=O)[C@@H]2C[C@H](C)CN2C(=O)[C@H](CCc2ccc(C(F)(F)F)c(OC)c2)NC(=O)CN(C)C(=O)[C@H](Cc2ccc(C(F)(F)F)cc2)N2CC/C=C\C[C@@H](C2=O)N(C)C(=O)CN(C)C1=O [PP2005] | A (a compound having 10 or more and less than 20 is denoted as A) | A (a compound having 10 or more and less than 20 is denoted as A) |
| 0.23 nM | 6.3 nM | CCO[C@@H]1C[C@H]2C(=O)NC3(CC(C)(C)C3)C(=O)N(C)[C@@H](C3CCCC3)C(=O)N(C)[C@H](C(=O)N(C)CC)CC(=O)N(C)[C@@H](CC(C)C)C(=O)N[C@@H]([C@@H](C)OCC)C(=O)N(C)CC(=O)N(C)[C@H]3C/C=C\CCN(C3=O)[C@@H](Cc3ccc(C(F)(F)F)cc3)C(=O)N(C)CC(=O)N[C@@H](CCc3cc(F)c(C(F)(F)F)c(F)c3)C(=O)N2C1 [PP1919] | A (a compound having 10 or more and less than 20 is denoted as A) | A (a compound having 10 or more and less than 20 is denoted as A) |

The next lines start with the compound.

| Compound | Kd [1] | IC50 [3] | HRAS/KRAS (KD ratio) [2] | NRAS/KRAS (KD ratio) [4] |
| --- | --- | --- | --- | --- |
| CCCN(C)C(=O)[C@@H]1CC(=O)N(C)[C@@H](CC(F)(F)F)C(=O)N[C@@H]([C@@H](C)CC)C(=O)N(C)CC(=O)N(C)[C@H]2C/C=C\CCN(C2=O)[C@@H](Cc2ccc(C(F)(F)F)cc2)C(=O)N(C)CC(=O)N[C@@H](CCc2cc(F)c(C(F)(F)F)c(F)c2)C(=O)N2C[C@H](OCC)C[C@H]2C(=O)NC2(CCC2)C(=O)N(C)[C@@H](C2CCCC2)C(=O)N1C [PP1702] | 0.085 nM | 4.9 nM | A (a compound having 10 or more and less than 20 is denoted as A) | A (a compound having 10 or more and less than 20 is denoted as A) |
| CCCN(C)C(=O)[C@@H]1CC(=O)N(C)[C@@H](COC)C(=O)N[C@@H]([C@@H](C)CC)C(=O)N(C)CC(=O)N(C)[C@H]2C/C=C\CCN(C2=O)[C@@H](Cc2ccc(C(F)(F)F)cc2)C(=O)N(C)CC(=O)N[C@@H](CCc2cc(F)c(C(F)(F)F)c(F)c2)C(=O)N2C[C@H](OCC)C[C@H]2C(=O)NC2(CCC2)C(=O)N(C)[C@@H](C2CCCC2)C(=O)N1C [PP1706] | 0.075 nM | 6.7 nM | A (a compound having 10 or more and less than 20 is denoted as A) | A (a compound having 10 or more and less than 20 is denoted as A) |
| CC[C@H](C)[C@@H]1NC(=O)[C@H](CC(C)C)N(C)C(=O)C[C@@H](C(=O)N(C)CC)N(C)C(=O)[C@H](C2CCCC2)N(C)C(=O)C2(CC(C)(C)C2)NC(=O)[C@@H]2C[C@@H](C)CN2C(=O)[C@H](CCc2ccc(C(F)(F)F)c(OC)c2)NC(=O)CN(C)C(=O)[C@H](Cc2ccc(C)cc2)N2CC/C=C\C[C@@H](C2=O)N(C)C(=O)CN(C)C1=O [PP1909] | 0.34 nM | 15.3 nM | B (a compound having 3 or more and less than 10 is denoted as B) | A (a compound having 10 or more and less than 20 is denoted as A) |
| CCO[C@@H]1C[C@H]2C(=O)NC3(CC(C)(C)C3)C(=O)N(C)[C@@H](C(CC)CC)C(=O)N(C)[C@H](C3CCC3)CC(=O)N(C)[C@@H](CC3CC3)C(=O)N[C@@H]([C@@H](C)CC)C(=O)N(C)CC(=O)N(C)[C@H]3C/C=C\CCN(C3=O)[C@@H](Cc3ccc(C(F)(F)F)cc3)C(=O)N(C)CC(=O)N[C@@H](CCc3cc(F)c(C(F)(F)F)c(F)c3)C(=O)N2C1 [PP1634] | 5.1 nM | 144 nM | A (a compound having 10 or more and less than 20 is denoted as A) | A (a compound having 10 or more and less than 20 is denoted as A) |
| CCCN(C)C(=O)[C@@H]1CC(=O)N(C)[C@@H](COC)C(=O)N[C@@H]([C@@H](C)CC)C(=O)N(C)CC(=O)N(C)[C@H]2C/C=C\CCN(C2=O)[C@@H](Cc2ccc(C(F)(F)F)cc2)C(=O)N(C)CC(=O)N[C@@H](CCc2cc(F)c(C(F)(F)F)c(F)c2)C(=O)N2C[C@H](F)C[C@H]2C(=O)NC2(CC(C)(C)C2)C(=O)N(C)[C@@H](C2CCCC2)C(=O)N1C [PP1696] | 0.041 nM | 2.9 nM | A (a compound having 10 or more and less than 20 is denoted as A) | AA (a compound having 20 or more is denoted as AA) |
| CCO[C@@H]1C[C@H]2C(=O)NC3(CC(F)(F)C3)C(=O)N(C)[C@@H](C(CC)CC)C(=O)N(C)[C@H](CC)CC(=O)N(C)[C@@H](CC)C(=O)N[C@@H]([C@@H](C)CC)C(=O)N(C)CC(=O)N(C)[C@H]3C/C=C\CCN(C3=O)[C@@H](Cc3ccc(C(F)(F)F)cc3)C(=O)N(C)CC(=O)N[C@@H](CCc3cc(F)c(C(F)(F)F)c(F)c3)C(=O)N2C1 [PP1626] | 3 nM | 108 nM | A (a compound having 10 or more and less than 20 is denoted as A) | A (a compound having 10 or more and less than 20 is denoted as A) |
| CC[C@H](C)[C@@H]1NC(=O)[C@H](CC)N(C)C(=O)C[C@@H](C(=O)N(C)C)N(C)C(=O)[C@H](C2CCCC2)N(C)C(=O)C2(CC(C)(C)C2)NC(=O)[C@@H]2C[C@H](C)CN2C(=O)[C@H](CCc2ccc(C(F)(F)F)c(Cl)c2)NC(=O)CN(C)C(=O)[C@H](Cc2ccc(C)cc2)N2CC/C=C\C[C@@H](C2=O)N(C)C(=O)CN(C)C1=O [PP1844] | 0.07 nM | 12.3 nM | B (a compound having 3 or more and less than 10 is denoted as B) | A (a compound having 10 or more and less than 20 is denoted as A) |
